Test results taken from ChEMBL document CHEMBL5727627, “Tetrahydropyrimidodiazepine and dihydropyridodiazepine compounds for treating pain and pain related conditions” (2020).

Biological target: Voltage-dependent calcium channel subunit alpha-2/delta-1 (Homo sapiens, UniProt P54289)
Assay: Binding Assay: α2δ-1: Binding Assay to Human α2δ-1 Subunit of Cav2.2 Calcium Channel.Human α2δ-1 enriched membranes (2.5 μg) were incubated with 15 nM of radiolabeled [3H]-Gabapentin in assay buffer containing Hepes-KOH 10 mM, pH 7.4.NSB (non specific binding) was measured by adding 10 μM pregabalin. After 60 min incubation at 27° C., binding reaction was terminated by filtering through Multiscreen GF/C (Millipore) presoaked in 0.5% polyethyleneimine in Vacuum Manifold Station, followed by 3 washes with ice-cold filtration buffer containing 50 mM Tris-HCl, pH 7.4.Filter plates were dried at 60° C. for 1 hour and 30 μl of scintillation cocktail were added to each well before radioactivity reading.Readings were performed in a Trilux 1450 Microbeta radioactive counter (Perkin Elmer).

Chain of Voltage-dependent calcium channel subunit alpha-2/delta-1 (P54289 25-956 limits assumed): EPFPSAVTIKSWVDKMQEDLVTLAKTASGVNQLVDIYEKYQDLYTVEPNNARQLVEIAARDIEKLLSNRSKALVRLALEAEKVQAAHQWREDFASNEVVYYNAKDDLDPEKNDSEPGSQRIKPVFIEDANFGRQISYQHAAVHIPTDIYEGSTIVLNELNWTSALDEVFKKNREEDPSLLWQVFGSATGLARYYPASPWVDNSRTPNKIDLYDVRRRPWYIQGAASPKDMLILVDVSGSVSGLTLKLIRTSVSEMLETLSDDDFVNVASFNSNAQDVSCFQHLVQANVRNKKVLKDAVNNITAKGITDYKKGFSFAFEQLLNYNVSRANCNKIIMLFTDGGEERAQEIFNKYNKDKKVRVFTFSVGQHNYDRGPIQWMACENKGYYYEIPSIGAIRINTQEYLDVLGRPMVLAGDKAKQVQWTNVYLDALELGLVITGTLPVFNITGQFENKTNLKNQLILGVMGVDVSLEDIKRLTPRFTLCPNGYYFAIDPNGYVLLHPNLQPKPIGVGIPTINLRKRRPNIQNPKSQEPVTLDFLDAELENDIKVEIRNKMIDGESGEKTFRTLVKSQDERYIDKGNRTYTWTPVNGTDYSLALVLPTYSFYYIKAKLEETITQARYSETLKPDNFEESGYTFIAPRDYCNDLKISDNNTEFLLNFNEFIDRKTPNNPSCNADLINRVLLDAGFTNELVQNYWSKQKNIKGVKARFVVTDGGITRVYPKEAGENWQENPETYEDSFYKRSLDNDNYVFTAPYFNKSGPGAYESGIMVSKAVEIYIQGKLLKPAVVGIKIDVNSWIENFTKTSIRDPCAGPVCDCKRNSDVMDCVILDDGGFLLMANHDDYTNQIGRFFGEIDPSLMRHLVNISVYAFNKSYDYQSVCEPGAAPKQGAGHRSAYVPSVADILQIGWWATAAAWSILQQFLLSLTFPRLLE
Chain of Voltage-dependent calcium channel subunit alpha-2/delta-1 (P54289 957-1103 limits assumed): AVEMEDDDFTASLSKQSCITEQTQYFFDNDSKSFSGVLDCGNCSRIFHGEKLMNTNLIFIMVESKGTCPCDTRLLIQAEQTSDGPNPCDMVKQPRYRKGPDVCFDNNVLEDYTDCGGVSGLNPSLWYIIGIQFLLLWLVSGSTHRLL

Ki, > 3 µM:
CSc1ncc2c(n1)N(C)CCN(c1cccc(OC(CCN(CCF)C(=O)OC(C)(C)C)c3cccs3)c1)C2=O (stereo not given)
CNCC[C@H](Oc1cc(F)ccc1CN1CCN(C)c2nc(OC)ncc2C1=O)c1cccs1
CSc1ncc2c(n1)N(C)CCN(c1cccc(-c3nnc(CN(C)C(=O)OC(C)(C)C)o3)c1)C2=O
CCNc1cc2c(cn1)C(=O)N(c1cccc(COC(CCN(C)C(=O)OC(C)(C)C)c3ccccc3)c1)CCN2C (stereo not given)
CCNc1cc2c(cn1)C(=O)N(c1cccc(OC(CCN(C)C(=O)OC(C)(C)C)c3ccccc3)c1)CCN2C (stereo not given)
